Patent publication US20120183579A1, “COMPOUNDS FOR INFLAMMATION AND IMMUNE-RELATED USES” (Synta Pharmaceuticals Corp., priority 2008, published 2012)
Structures can show the parent of a compound that is named as a salt.

Test system: IL-2
Test: Inhibition of IL-2 production (Jurkat cells activated with PHA, ELISA)
Type: cell-based
Conditions: Homo sapiens, Jurkat, Jurkat/PHA/1% FBS; activity class
Description: Jurkat cells were placed in a 96 well plate (0.5 million cells per well in 1% FBS medium), and then a test compound of this invention was added at different concentrations. After 10 minutes, the cells were activated with PHA (final concentration 2.5 μg/mL) and incubated for 20 hours at 37° C. under 5% CO2. The final volume was 200 μL. Following incubation, the cells were centrifuged, and the supernatants collected and stored at −70° C. prior to assaying for IL-2 production. A commercial ELISA kit (IL-2 Eli-pair, Diaclone Research, Besancon, France) was used to detect production of IL-2, from which dose response curves were obtained. The IC50 value was calculated as the concentration at which 50% of maximum IL-2 production after stimulation was inhibited versus a non-stimulation control.

IC50 [nM]	SMILES
50 to 100	CC1=C(c2cnc(NC(=O)c3c(F)cccc3F)cn2)CN(c2nc(-c3cccnc3)cs2)CC1 [Compound 17, 2,6-difluoro-N-(5-(4-methyl-1-(4-(pyridin-3-yl)thiazol-2-yl)-1,2,5,6-tetrahydropyridin-3-yl)pyrazin-2-yl)benzamide]

Same assay, conditions: Homo sapiens, Jurkat, Jurkat/PHA/1% FBS; numeric values

IC50 [nM]	SMILES
14	Cn1nnc(N2CCC(C3CC3)=C(c3ccc(NC(=O)c4c(F)cccc4F)cc3)C2)n1 [Compound 8, N-(4-(4-cyclopropyl-1-(2-methyl-2H-tetrazol-5-yl)-1,2,5,6-tetrahydropyridin-3-yl)phenyl)-2,6-difluorobenzamide]
19	O=C(Nc1cnc(C2=C(Cl)CCN(c3nccs3)C2)cn1)c1c(F)cccc1F [Compound 12, N-(5-(4-chloro-1-(thiazol-2-yl)-1,2,5,6-tetrahydropyridin-3-yl)pyrazin-2-yl)-2,6-difluorobenzamide hydrochloride]
32	CCn1nnc(N2CCC(C)=C(c3cnc(NC(=O)c4c(F)cccc4Cl)cn3)C2)n1 [Compound 18, 2-chloro-N-(5-(1-(2-ethyl-2H-tetrazol-5-yl)-4-methyl-1,2,5,6-tetrahydropyridin-3-yl)pyrazin-2-yl)-6-fluorobenzamide]
52	CC1=C(c2ccc(NC(=O)c3c(F)cccc3F)cc2)CN(c2nnn(C)n2)CC1 [Compound 20, 2,6-difluoro-N-(4-(4-methyl-1-(2-methyl-2H-tetrazol-5-yl)-1,2,5,6-tetrahydropyridin-3-yl)phenyl)benzamide]
14	CC1=C(c2ccc(NC(=O)c3ccncc3F)cc2)CN(c2ncccc2F)CC1 [Compound 23, 3-fluoro-N-(4-(1-(3-fluoropyridin-2-yl)-4-methyl-1,2,5,6-tetrahydropyridin-3-yl)phenyl)isonicotinamide]
17	CC1=C(c2ccc(NC(=O)c3ccccc3Cl)cc2)CN(c2nnn(C)n2)CC1 [Compound 25, 2-chloro-N-(4-(4-methyl-1-(2-methyl-2H-tetrazol-5-yl)-1,2,5,6-tetrahydropyridin-3-yl)phenyl)benzamide]
18	CC1=C(c2ccc(NC(=O)c3c(F)cncc3F)cc2)CN(c2ccccn2)CC1 [Compound 26, 3,5-difluoro-N-(4-(4-methyl-1-(pyridin-2-yl)-1,2,5,6-tetrahydropyridin-3-yl)phenyl)isonicotinamide hydrochloride]
19	CC1=C(c2ccc(NC(=O)c3ccncc3Cl)cc2)CN(c2nnn(C)n2)CC1 [Compound 27, 3-chloro-N-(4-(4-methyl-1-(2-methyl-2H-tetrazol-5-yl)-1,2,5,6-tetrahydropyridin-3-yl)phenyl)isonicotinamide]
19	O=C(Nc1ccc(C2=C(Cl)CCN(c3nccs3)C2)cc1)c1c(F)cccc1F [Compound 28, N-(4-(4-chloro-1-(thiazol-2-yl)-1,2,5,6-tetrahydropyridin-3-yl)phenyl)-2,6-difluorobenzamide]
20	CC1=C(c2ccc(NC(=O)c3cccc(F)c3Cl)cc2)CN(c2nnn(C)n2)CC1 [Compound 29, 2-chloro-3-fluoro-N-(4-(4-methyl-1-(2-methyl-2H-tetrazol-5-yl)-1,2,5,6-tetrahydropyridin-3-yl)phenyl) benzamide]
21	CC1=C(c2ccc(NC(=O)c3ccccc3F)cc2)CN(c2nnn(C)n2)CC1 [Compound 30, 2-fluoro-N-(4-(4-methyl-1-(2-methyl-2H-tetrazol-5-yl)-1,2,5,6-tetrahydropyridin-3-yl)phenyl)benzamide]
22	CC1=C(c2ccc(NC(=O)c3c(F)cccc3F)cc2)CN(c2ccccn2)CC1 [Compound 33, 2,6-difluoro-N-(4-(4-methyl-1-(pyridin-2-yl)-1,2,5,6-tetrahydropyridin-3-yl)phenyl)benzamide]
22	Cn1nnc(N2CCC(Cl)=C(c3ccc(NC(=O)c4c(F)cccc4F)cc3)C2)n1 [Compound 34, N-(4-(4-chloro-1-(2-methyl-2H-tetrazol-5-yl)-1,2,5,6-tetrahydropyridin-3-yl)phenyl)-2,6-difluorobenzamide]

Second part, the compound before the results:

SMILES	IC50 [nM]
CC1=C(c2ccc(NC(=O)c3ccccc3F)cc2)CN(c2nccs2)CC1 [Compound 7, 2-fluoro-N-(4-(4-methyl-1-(thiazol-2-yl)-1,2,5,6-tetrahydropyridin-3-yl)phenyl)benzamide]	13
CC1=C(c2cnc(NC(=O)c3c(F)cccc3F)cn2)CN(c2ncc(C)s2)CC1 [Compound 9, 2,6-difluoro-N-(5-(4-methyl-1-(5-methylthiazol-2-yl)-1,2,5,6-tetrahydropyridin-3-yl)pyrazin-2-yl)benzamide hydrochloride]	15
CC1=C(c2cnc(NC(=O)c3c(F)cccc3F)cn2)CN(c2ncccc2C#N)CC1 [Compound 10, N-(5-(1-(3-cyanopyridin-2-yl)-4-methyl-1,2,5,6-tetrahydropyridin-3-yl)pyrazin-2-yl)-2,6-difluorobenzamide]	18
CC1=C(c2cnc(NC(=O)c3cc(F)ccc3C)cn2)CN(c2ncccc2F)CC1 [Compound 13, 5-fluoro-N-(5-(1-(3-fluoropyridin-2-yl)-4-methyl-1,2,5,6-tetrahydropyridin-3-yl)pyrazin-2-yl)-2-methylbenzamide]	30
CC1=C(c2cnc(NC(=O)c3cc(F)ccc3Cl)cn2)CN(c2ncccc2F)CC1 [Compound 16, 2-chloro-5-fluoro-N-(5-(1-(3-fluoropyridin-2-yl)-4-methyl-1,2,5,6-tetrahydropyridin-3-yl)pyrazin-2-yl)benzamide]	30
CC1=C(c2cnc(NC(=O)c3c(F)cccc3F)cn2)CN(c2ncc(F)cc2F)CC1 [Compound 19, N-(5-(1-(3,5-difluoropyridin-2-yl)-4-methyl-1,2,5,6-tetrahydropyridin-3-yl)pyrazin-2-yl)-2,6-difluorobenzamide]	36
CC1=C(c2cnc(NC(=O)c3cc(F)ccc3Cl)cn2)CN(c2nccs2)CC1 [Compound 21, 2-chloro-5-fluoro-N-(5-(4-methyl-1-(thiazol-2-yl)-1,2,5,6-tetrahydropyridin-3-yl)pyrazin-2-yl)benzamide]	55
CC1=C(c2cnc(NC(=O)c3ccc(F)cc3F)cn2)CN(c2nccs2)CC1 [Compound 22, 2,4-difluoro-N-(5-(4-methyl-1-(thiazol-2-yl)-1,2,5,6-tetrahydropyridin-3-yl)pyrazin-2-yl)benzamide]	10
CC1=C(c2cnc(NC(=O)c3c(F)cccc3F)cn2)CN(c2ncccc2O)CC1 [Compound 24, 2,6-difluoro-N-(5-(1-(3-hydroxypyridin-2-yl)-4-methyl-1,2,5,6-tetrahydropyridin-3-yl)pyrazin-2-yl)benzamide]	14
CC1=C(c2cnc(NC(=O)c3cnccc3C)cn2)CN(c2ncccc2F)CC1 [Compound 31, N-(5-(1-(3-fluoropyridin-2-yl)-4-methyl-1,2,5,6-tetrahydropyridin-3-yl)pyrazin-2-yl)-4-methylnicotinamide]	21
CC1=C(c2cnc(NC(=O)c3ccccc3Cl)cn2)CN(c2nccnc2Cl)CC1 [Compound 35, 2-chloro-N-(5-(1-(3-chloropyrazin-2-yl)-4-methyl-1,2,5,6-tetrahydropyridin-3-yl)pyrazin-2-yl)benzamide]	23

Same assay, conditions: Jurkat/PHA/1% FBS; numeric values; hydrochloride

IC50 [nM]	SMILES
21	O=C(Nc1ccc(C2=C(Cl)CCN(c3nccs3)C2)cc1)c1c(F)cccc1F [Compound 32, N-(4-(4-chloro-1-(thiazol-2-yl)-1,2,5,6-tetrahydropyridin-3-yl)phenyl)-2,6-difluorobenzamide hydrochloride]
